“And” between values parts separate entries of the source, which are not always exact repeats. Identical values can stand only once.
Columns and labels:
MCF-7 cells [1] = experiment: Colony-formation assay, MCF-7 (wild-type and ESR1 knock-in); assay type: cell-based, human; settings: for Relative colony formation: 1 μM 4OHT, 0.2 μM Fulvestrant, 2 μM VT02956, 2 μM VT02484, Fig.6g
Experimental: […] The drugs were refreshed every 2–4 days. The colonies were then fixed with 4% paraformaldehyde for 15 min and stained with 0.1% crystal violet in 20% methanol solution for quantification.

MCF-7 cells [2] = experiment: Cell proliferation by cell counting, MCF-7; assay type: cell-based, human; settings: for Fold change of cell proliferation: 4OHT (0.5 μM), Fig.6f; for Cell proliferation (cell counting): 1 μM Entinostat for 4 days, Fig.1p
Experimental: Cell proliferation rates were determined by automated cell counter. In brief, cells were plated at density of 0.1 million cells per well in six-well plate. Cell numbers were counted by the indicated time point as stated in the figure legends.

TEAD-VGLL3-NCOR2 complex = target: T1, TEAD-VGLL3-NCOR2 complex (Homo sapiens, UniProt Q15562); experiment: TEAD2 co-immunoprecipitation with NCOR2 / VGLL3; assay type: cell-based; settings: MCF7 transfected cells; Fig. 2n
T1 construct: expressed in transfected cells; host or cells: MCF-7
T1 sequence (Q15562 whole entry, one chain of several): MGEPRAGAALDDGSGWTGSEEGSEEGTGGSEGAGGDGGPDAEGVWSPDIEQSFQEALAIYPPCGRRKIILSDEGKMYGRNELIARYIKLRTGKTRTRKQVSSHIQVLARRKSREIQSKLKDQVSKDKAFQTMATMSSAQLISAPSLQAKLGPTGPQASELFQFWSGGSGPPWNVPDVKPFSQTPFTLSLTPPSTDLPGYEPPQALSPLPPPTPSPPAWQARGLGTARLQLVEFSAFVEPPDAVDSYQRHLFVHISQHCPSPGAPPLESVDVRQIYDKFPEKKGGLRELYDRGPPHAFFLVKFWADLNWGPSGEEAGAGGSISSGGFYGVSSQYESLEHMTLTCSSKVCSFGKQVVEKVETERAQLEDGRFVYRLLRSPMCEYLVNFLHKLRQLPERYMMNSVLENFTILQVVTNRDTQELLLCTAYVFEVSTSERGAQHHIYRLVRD
Experimental: For immunoprecipitations, cells were rinsed with ice-cold DPBS and then lysed in mild lysis buffer (150 mM NaCl, 50 mM Tris-Cl pH7.5, 0.5% Triton X-100) with protease inhibitors (Roche, #11873580001) and phosphatase inhibitors (Thermo Scientific, #88667) on ice for 30 min and centrifuged at 12,000 rpm for 10 min. Primary antibodies and Protein A/G magnetic beads (Pierce, #88803) were added to the supernatants and incubated with rotation for 3 h at 4 °C. Immunoprecipitants were washed four times with lysis buffer and were denatured by SDS-PAGE sample buffer and boiled for 5 min.

[3] = tested on: contact between ESR1 promoter and super enhancer locus; experiment: 3C library targeted bait qPCR (3C-qPCR); assay type: cell-based, human; settings: MCF-7 LATS1/2 dKO + 1 µM VT107 for 2 days; relative to Parental; Fig.s5f
Experimental: The 3C templates were generated by combining the protocols of 3C[40] with in-situ Hi-C[41]. Briefly, 10 million cells were collected, and the cell pellet was resuspended in DPBS with formaldehyde added at a final concentration of 1% at room temperature for 10 min. […] The nuclei were further washed once by in-situ lysis buffer and resuspended in 50 μl 0.5% SDS solution at 62 °C for exactly 10 min. The SDS was then neutralised by adding 145 μl H2O and 25 μl 10% Triton X-100 at 37 °C for 15 min. After adding 100 U DpnII (NEB, #R0543) with the presence of 1x NBEuffer 3.1, the restriction enzyme digestion was conducted in a thermomixer overnight at 37 °C. The restriction enzyme was then heat inactivated by incubating at 65 °C for 20 minutes. Then the digested chromatin was re-ligated by adding 900 μl Ligation Master Mix (1.3x NEB T4 Ligase Buffer, 1.1% X-100, 0.05% BSA and 2 U/μl T4 ligase) and incubated overnight at 16 °C with constant rotation. […] The 3C DNA was then purified with phenol-chloroform, precipitated and washed in 70% ethanol, and resuspend in Elution Buffer (1 mM Tris-HCl pH 8.0, 0.1 mM EDTA) and quantified with Nanodrop. […] Library concentration was measured with Qubit sdDNA HS Assay Kit and further qualified with Tapestation. […] After sequencing quality control with FastQC and trimming of adaptor sequence with Trim Galore, reads were processed in accordance with the Umi4C pipeline.

[4] = tested on: ERα, YAP/TAZ phosphorylation in MCF-7 cells; experiment: Immunoblot analysis, MCF-7 cells; assay type: cell-based, human; settings: WT or LATS1/2 dKO MCF-7; 1 µM of VT-107 for 2 days; Supplementary Fig. 4k
T47D cells = experiment: Colony-formation assay, T47D (wild-type and ESR1 knock-in); assay type: cell-based; settings: 1 μM 4OHT, 0.2 μM Fulvestrant, 2 μM VT02956, 2 μM VT02484, 14 days, Fig.6h
Experimental: For colony formation, cells were plated into 12-well plate with a constant density at the start date of treatment in triplicate with the indicated compounds and further cultured for 10 days (MCF-7) or 14 days (T47D). The drugs were refreshed every 2–4 days. The colonies were then fixed with 4% paraformaldehyde for 15 min and stained with 0.1% crystal violet in 20% methanol solution for quantification.

[5] = tested on: ER+ breast tumour organoids (BTO-02); experiment: 3D organoids drug response assay (CellTiter-Glo 3D); assay type: cell-based, human; settings: BTO-02; 12 days treatment with 0.2 µM Fulvestrant or 1 µM Tamoxifen; Fig.s6p
Experimental: Breast tumour organoids were dissociated into single cells using TrypLE Express and counted with automated cell counter. Subsequently, 1000 cells were mixed in 10 μl BME type 2, seeded onto 96-well plate in triplicate and overlaid with 100 μl BC organoid medium (BOM) after BME gelation. Three days after organoids sphere formation, medium was removed and replaced by 100 μl of complete medium containing VT02956 (0, 0.04, 0.2, 1, 5 μM) or vehicle (DMSO). The drug-containing medium was refreshed every 3 days for additional 3–4 times. At the end of the treatment, the effect of the drugs on the tumour organoids, in terms of the organoids cell growth, was assayed with CellTiter-Glo 3D (Promega) according to the manufacturer’s instructions and were normalised to vehicle controls (0.5% DMSO content). The IC50 values was calculated in GraphPad Prism 8.

[6] = tested on: VGLL3, ESR1, YAP/TAZ target and ERα target gene mRNA in MCF-7 cells; experiment: qPCR gene expression in MCF-7 cells; settings: 1 μM Entinostat for 24 h, Fig.1o;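 further: SYBR Green real-time PCR, mRNA abundance computed by the ΔCt approach with GAPDH transcript as the internal normalisation control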
[7] = tested on: YAP/TAZ target, ESR1 and ERα target gene mRNA in BTO-02; experiment: qPCR gene expression in breast tumour organoids BTO-02; assay type: cell-based, human; settings: BTO-02 starved for E2 for 3 days, then 100 nM E2 for 2 hours; Fig.s6o;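 further: relative mRNA abundance computed by the ΔCt approach from SYBR-based real-time qPCR, with GAPDH as internal housekeeping reference for normalisation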

CC(=O)c1c(C)c2cnc(Nc3ccc(N4CCNCC4)cn3)nc2n(C2CCCC2)c1=O [Palbociclib, reference compound]
Rel. colony (colony-formation assay) (MCF-7 cells [1]; MCF-7, VT02956 (2 μM), VT02484 (2 μM) or Palbociclib (0.1 μM) alone or in combinations, Fig.6d): 0.58 and 0.54 and 0.51 | MCF-7 growth, palbociclib combined with LATS1/2 depletion (MCF-7 cells [2]; LATS1/2 deficient MCF-7, Palbociclib 0.1 or 0.3 µM for 7 days, Supplementary Fig. 8i): dramatically reduced MCF-7 growth

VT-107
TEAD2 Co-IP with VGLL3 / NCOR2 (TEAD-VGLL3-NCOR2 complex): disrupted the interaction of TEAD with either VGLL3 or NCOR2 | Rel. Contact (3C-qPCR) between ESR1 promoter and super enhancer [3]: 0.5958 and 0.5632 and 0.5017 | ERα level (immunoblot) [4]: ameliorated the ERα downregulation caused by LATS1/2 dKO

C[C@]12CC[C@@H]3c4ccc(O)cc4C[C@@H](CCCCCCCCC[S+]([O-])CCCC(F)(F)C(F)(F)F)[C@H]3[C@@H]1CC[C@@H]2O (stereo partly drawn) [Fulvestrant, reference compound]
Relative colony formation (MCF-7 cells [1]; MCF-7 ERa D538G knock-in): 0.58 and 0.62 and 0.53 | Relative colony formation (MCF-7 cells [1]; MCF-7 ERa Y537S knock-in): 0.68 and 0.73 and 0.65 | Relative colony formation (MCF-7 cells [1]; MCF-7 WT): 0.31 and 0.26 and 0.32 | Relative colony formation (T47D cells; T47D ERa Y537S knock-in): 0.68 and 0.73 and 0.65 | Relative colony formation (T47D cells; T47D WT): 0.38 and 0.35 and 0.32 | Rel. growth (BTO-02, %) [5]: 43.197% and 36.224% and 48.81%

CC/C(=C(\c1ccc(O)cc1)c1ccc(OCCN(C)C)cc1)c1ccccc1 [4OHT, 4-Hydroxytamoxifen, reference compound]
Relative colony formation (MCF-7 cells [1]; MCF-7 ERa D538G knock-in): 0.71 and 0.61 and 0.66 | Relative colony formation (MCF-7 cells [1]; MCF-7 ERa Y537S knock-in): 0.79 and 0.83 and 0.77 | Relative colony formation (MCF-7 cells [1]; MCF-7 WT): 0.38 and 0.41 and 0.34 | Relative colony formation (T47D cells; T47D ERa Y537S knock-in): 0.79 and 0.83 and 0.77 | Relative colony formation (T47D cells; T47D WT): 0.41 and 0.38 and 0.44 | Fold change of cell proliferation (MCF-7 cells [2]; MCF-7 ERα-Y537S knock-in + ctrl): 1.082 and 1.041 and 1.122 | Fold change of cell proliferation (MCF-7 cells [2]; MCF-7 ERα-Y537S knock-in + sgLATS1/2): 0.2796 and 0.349 and 0.2955 | Fold change of cell proliferation (MCF-7 cells [2]; MCF-7 wt + ctrl): 0.5306 and 0.5714 and 0.5918 | Fold change of cell proliferation (MCF-7 cells [2]; MCF-7 wt + sgLATS1/2): 0.2041 and 0.1918 and 0.1796

Nc1ccccc1NC(=O)c1ccc(CNC(=O)OCc2cccnc2)cc1 [Entinostat, reference compound]
ESR1 expression (qPCR) ([6]; VGLL3 KO MCF-7): 0.5015 and 0.486 and 0.4463 | ESR1 expression (qPCR) ([6]; Wild-type MCF-7): 0.07832 and 0.08939 and 0.1138 | Cell proliferation (cell counting) (MCF-7 cells [2]; VGLL3 KO MCF-7): 10.42 and 9.55 and 11.21 | Cell proliferation (cell counting) (MCF-7 cells [2]; Wild-type MCF-7): 4.59 and 3.87 and 4.88

C[C@]12CC[C@@H]3c4ccc(O)cc4CC[C@H]3[C@@H]1CC[C@@H]2O [E2, 17β-estradiol, reference compound]
GREB1 Rel. expression (BTO-02) [7]: 4.976 and 4.601 and 4.355 | TFF1 Rel. expression (BTO-02) [7]: 6.504 and 6.591 and 6.279

CC/C(=C(\c1ccccc1)c1ccc(OCCN(C)C)cc1)c1ccccc1 [Tamoxifen]
Rel. growth (BTO-02, %) [5]: 55.442% and 49.15% and 52.381%

— paper PMC8881512 (Nature Communications, 2022)
